Laboratory results reported in US8530512B2, “Broad spectrum gram-positive antimicrobials and anthelmintics with efficacy against drug-resistant strains and Mycobacterium species” (priority 2004, dated 2013).
Values after ≈ are worked out from the molar mass of the structure shown. Read-outs that look alike come from different tables or passages of the source.

How the values were obtained:
[1] = system: Staphylococcus aureus ATCC 29213; test: microbe, parasite or virus in culture; type: cell-based; conditions: Staphylococcus aureus, ATCC29213; per-compound listing, Example 6; read-out: MIC S. aureus
Streptococcus pyogenes = test: microbe, parasite or virus in culture; type: cell-based; conditions: for MIC: Streptococcus pyogenes, per-compound listing, Example 6, read-out: MIC S. pyogenes; for MIC S. pyogenes, G+: Table 3
M. smegmatis = test: MIC assay; type: cell-based; conditions: Mycolicibacterium smegmatis, read-out: MIC M. smegmatis
C. elegans = test: motility assay; type: in vivo; design: key to Movement score, 1/1600 / Movement score, 1/800 / Movement score, 1/400 / Movement score, 1/200 / Movement score, 1/100: normal (−); slow (+); very slow (++); not motile/paralyzed (+++); conditions: for Movement score, 1/100: dilution 1/100 of stock (10.24 μg/μL; SK-03-92 1.024 μg/μL); for Movement score, 1/100 / Movement score, 1/200 / Movement score, 1/400 / Movement score, 1/800 / Movement score, 1/1600: Ive 1 ng/μL in all wells; for Movement score, 1/200: dilution 1/200 of stock (10.24 μg/μL; SK-03-92 1.024 μg/μL); for Movement score, 1/400: dilution 1/400 of stock (10.24 μg/μL; SK-03-92 1.024 μg/μL); for Movement score, 1/800: dilution 1/800 of stock (10.24 μg/μL; SK-03-92 1.024 μg/μL); for Movement score, 1/1600: dilution 1/1600 of stock (10.24 μg/μL; SK-03-92 1.024 μg/μL), overnight 20° C.; for effect on worms at the lowest concentrations tested: at least triplicate
[2] = system: Staphylococcus aureus MRSA MC-1; test: microbe, parasite or virus in culture; type: cell-based; conditions: Staphylococcus aureus, MRSA, read-out: MIC MRSA
Bacillus cereus = test: microbe, parasite or virus in culture; type: cell-based; conditions: for MIC: Bacillus cereus, per-compound listing, Example 6, read-out: MIC B. cereus; for MIC B. cereus, G+ (anthrax surrogate): Table 3
[3] = system: Enterococcus faecium VRE 1; test: organism not typed; type: cell-based; conditions: for MIC E. faecium VRE 1, G+: Table 3; for MIC: read-out: MIC VRE
C. elegans L1 larvae = test: developmental assay; type: in vivo; design: key to Developmental score, 1/1600 / Developmental score, 1/800 / Developmental score, 1/400 / Developmental score, 1/200 / Developmental score, 1/100: dead (+++); distressed (++); slightly delayed (+); the same as M9-only untreated wells (−); conditions: for Developmental score, 1/100: dilution 1/100; for Developmental score, 1/100 / Developmental score, 1/200 / Developmental score, 1/400 / Developmental score, 1/800 / Developmental score, 1/1600: after four days, Ive 1 ng/μL in each well; for Developmental score, 1/200: dilution 1/200; for Developmental score, 1/400: dilution 1/400; for Developmental score, 1/800: dilution 1/800; for Developmental score, 1/1600: dilution 1/1600
[4] = per-compound listing, Example 6

Compound | MIC [1] | MIC (Streptococcus pyogenes) | MIC S. pyogenes, G+ (Streptococcus pyogenes) | MIC (M. smegmatis; [4]) | Movement score, 1/100 (C. elegans) | Movement score, 1/200 (C. elegans) | Movement score, 1/400 (C. elegans) | Movement score, 1/800 (C. elegans) | Movement score, 1/1600 (C. elegans) | MIC [2] | MIC (Bacillus cereus) | MIC B. cereus, G+ (anthrax surrogate) (Bacillus cereus) | MIC E. faecium VRE 1, G+ [3] | MIC [3] | Developmental score, 1/100 (C. elegans L1 larvae) | Developmental score, 1/200 (C. elegans L1 larvae) | Developmental score, 1/400 (C. elegans L1 larvae) | Developmental score, 1/800 (C. elegans L1 larvae) | Developmental score, 1/1600 (C. elegans L1 larvae) | further results
COc1cc(O)cc(/C=C/Oc2ccccc2)c1 [CL-1, Phenyl-E-(3-hydroxy-5-methoxy)-styryl ether] | 32 mg/L (≈ 132 µM) | 32 mg/L (≈ 132 µM) | 32 mg/L (≈ 132 µM) | 128 mg/L (≈ 528 µM) | +++ | +++ | − | − | − | 64 mg/L (≈ 264 µM) | 32 mg/L (≈ 132 µM) | 16 mg/L (≈ 66 µM) | 64 mg/L (≈ 264 µM) | 64 mg/L (≈ 264 µM) |  |  |  |  |  | 
COc1cc(O)cc(O/C=C/c2ccccc2)c1 [CL-2, Phenyl-E-(3-hydroxy-5methoxy)-styryl ether] | 32 mg/L (≈ 132 µM) | 16 mg/L (≈ 66 µM) | 16 mg/L (≈ 66 µM) | 128 mg/L (≈ 528 µM) | +++ | +++ | +++ | − | − | 32 mg/L (≈ 132 µM) | 64 mg/L (≈ 264 µM) | 64 mg/L (≈ 264 µM) | 32 mg/L (≈ 132 µM) | 32 mg/L (≈ 132 µM) |  |  |  |  |  | 
COc1cc(O)cc(/C=C/Sc2ccccc2)c1 [CL-4, Phenyl-E-(3-hydroxy-5methoxy)-styryl thioether] | 16 mg/L (≈ 61.9 µM) | 8 mg/L (≈ 31 µM) | 8 mg/L (≈ 31 µM) | 128 mg/L (≈ 495 µM) | +++ | +++ | ++ | + | − | 32 mg/L (≈ 124 µM) | 16 mg/L (≈ 61.9 µM) | 16 mg/L (≈ 61.9 µM) | 32 mg/L (≈ 124 µM) | 32 mg/L (≈ 124 µM) | +++ | +++ | +++ | − | − | 
COc1cc(O)cc(/C=C/c2ccsc2)c1 [CL-5, (E)-3-[2-(3-Hydroxy-5-methoxy)-vinyl]thiophene] | 16 mg/L (≈ 68.9 µM) | 4 mg/L (≈ 17.2 µM) | 4 mg/L (≈ 17.2 µM) | 128 mg/L (≈ 551 µM) | +++ | +++ | +++ | +++ | ++ | 32 mg/L (≈ 138 µM) | 32 mg/L (≈ 138 µM) | 32 mg/L (≈ 138 µM) | 32 mg/L (≈ 138 µM) | 32 mg/L (≈ 138 µM) | +++ | +++ | +++ | +++ | + | effect on worms at the lowest concentration tested (most active) (C. elegans): severe distress; effect on worms at the lowest concentrations tested (C. elegans): reduced motility, paralysis, or death; effect at the two highest dilutions (C. elegans L1 larvae): death or delays in development
COc1cc(O)cc(/C=C/c2cccs2)c1 [CL-6, (E)-2-[2-(3-Hydroxy-5-methoxy)-vinyl]thiophene] | 32 mg/L (≈ 138 µM) | 32 mg/L (≈ 138 µM) | 32 mg/L (≈ 138 µM) | 64 mg/L (≈ 276 µM) | +++ | +++ | +++ | − | − | 32 mg/L (≈ 138 µM) | 32 mg/L (≈ 138 µM) | 32 mg/L (≈ 138 µM) | 64 mg/L (≈ 276 µM) | 64 mg/L (≈ 276 µM) |  |  |  |  |  | 
COc1cc(O)cc(/C=C/Oc2ccccc2C)c1 [Compound A11, 2-Methylphenyl-E-(3-hydroxy-5-methoxy)-styryl ether] | 16 mg/L (≈ 62.4 µM) | 32 mg/L (≈ 125 µM) | 32 mg/L (≈ 125 µM) | > 128 mg/L |  |  |  |  |  | 32 mg/L (≈ 125 µM) | 32 mg/L (≈ 125 µM) | 64 mg/L (≈ 250 µM) | 32 mg/L (≈ 125 µM) | 32 mg/L (≈ 125 µM) |  |  |  |  |  | 
COc1cc(O)cc(/C=C/c2ccc3ccccc3c2)c1 [SK-03-28F2] | 8 mg/L (≈ 29 µM) |  |  | 256 mg/L (≈ 926 µM) | +++ | +++ | ++ | ++ | − |  | 16 mg/L (≈ 57.9 µM) |  |  |  | +++ | +++ | − | − | − | effect on worms at the lowest concentrations tested (C. elegans): reduced motility, paralysis, or death
Oc1cc(O)cc(/C=C/c2ccc3ccccc3c2)c1 [SK-03-28F3] | 8 mg/L (≈ 30.5 µM) |  |  | > 512 mg/L |  |  |  |  |  | 256 mg/L (≈ 976 µM) | 8 mg/L (≈ 30.5 µM) |  |  |  |  |  |  |  |  | 
Oc1cc(O)cc(/C=C/c2csc3ccccc23)c1 [SK-03-44F2] | 32 mg/L (≈ 119 µM) |  |  |  |  |  |  |  |  | > 512 mg/L | 256 mg/L (≈ 954 µM) |  |  |  |  |  |  |  |  | MIC (M. smegmatis): > 512 mg/L
COc1cc(O)cc(/C=C/SC2CCCCC2)c1 [SK-04-50] |  |  |  |  | ++ | + | + | + | + |  |  |  |  |  | +++ | + | − | − | − | 
CCOC(=O)/C=C\Sc1nc2ccccc2s1 [SK-04-59F1] |  |  |  |  | − | − | − | − | − |  |  |  |  |  |  |  |  |  |  | 
COc1cc(O)cc(/C=C/Sc2ccccc2C(C)C)c1 [SK-05-01] | 16 mg/L (≈ 53.3 µM) |  |  | 256 mg/L (≈ 852 µM) | + | − | − | − | − |  | 16 mg/L (≈ 53.3 µM) |  |  |  |  |  |  |  |  | 
COc1cc(O)cc(/C=C/Sc2ccc(C(C)(C)C)cc2)c1 [SK-05-04] | 16 mg/L (≈ 50.9 µM) |  |  | 128 mg/L (≈ 407 µM) |  |  |  |  |  |  | 8 mg/L (≈ 25.4 µM) |  |  |  |  |  |  |  |  | 
COc1cc(O)cc(/C=C/Sc2cccc3ccccc23)c1 [SK-05-16] | 4 mg/L (≈ 13 µM) |  |  | 128 mg/L (≈ 415 µM) | ++ | ++ | ++ | + | − |  | 4 mg/L (≈ 13 µM) |  |  |  | ++ | − | − | − | − | 
COc1cc(O)cc(/C=C/Sc2ccc3ccccc3c2)c1 [SK-05-17] | 4 mg/L (≈ 13 µM) |  |  | 128 mg/L (≈ 415 µM) | ++ | ++ | ++ | ++ | ++ |  | 4 mg/L (≈ 13 µM) |  |  |  | +++ | ++ | ++ | − | − | effect on worms at the lowest concentration tested (most active) (C. elegans): severe distress; effect on worms at the lowest concentrations tested (C. elegans): reduced motility, paralysis, or death
CCC(C)CS/C=C/c1cc(O)cc(OC)c1 (stereo not drawn) [SK-05-22] | 16 mg/L (≈ 63.4 µM) |  |  | 128 mg/L (≈ 507 µM) | +++ | +++ | ++ | + | − |  | 16 mg/L (≈ 63.4 µM) |  |  |  | +++ | +++ | +++ | + | − | effect at the two highest dilutions (C. elegans L1 larvae): death or delays in development
ivermectin [reference compound] |  |  |  |  | +++ | +++ | +++ | +++ | +++ |  |  |  |  |  | +++ | +++ | +++ | ++ | ++ | animals affected (C. elegans; 0.25 ng/μL, overnight): Over 40%; animals paralyzed (C. elegans; 0.5 ng/μL): more than 90%; paralysis (C. elegans; 0.5 ng/μl, FIG. 9): Most worms were paralyzed; paralysis (C. elegans; 1 ng/μL): All worms were paralyzed; lowest effective concentration (C. elegans; molar equivalent of 0.25 ng/μL): ~140 nM; lowest effective concentration (C. elegans; overnight, soaking, mixed population): 0.25 ng/µL
